{
  "source": "patent US20140080214A1",
  "about": "“CLEAVABLE CELLULOSIC SPONGE DEVELOPMENT FOR 3 DIMENSIONAL CELL CULTURE AND SPHEROIDS RETRIEVAL” (Agency for Science, Technology and Research, priority 2012, published 2014)",
  "key": {"[1]": {"details": "reduction of disulfide bonds; cited from earlier work"}, "[2]": {"assay": "Sponge cleavage condition optimization (visual monitoring of sponge incubated with reductant)", "details": "37° C.; for Remarks: sponge cleavage: 1 mM reductant in William's E medium", "quoted_text": "For easy visualization during cleavage, HPCSS Gal sponges were pre-soaked in 0.25 mg/mL propidium iodide overnight (Molecular Probes, USA). The stained sponges were incubated with 3 mL each of TCEP and DTT (as known strong reductant) per sponge at various concentrations (25, 10, 5, 3 and 1 mM) in 37° C., 5% CO2 and 95% incubator. The morphological changes of the sponge were monitored visually every 15 minutes."}, "primary rat hepatocyte": {"system": "primary rat hepatocyte", "assay": "TCEP toxicity study in primary rat hepatocyte (MTT)", "format": "cell-based", "details": "for primary rat hepatocyte viability: MTT, ratio to untreated", "description": "Primary rat hepatocyte was seeded on collagen coated well in 24-well plate format (0.3×10^6 cell per well). The culture was maintained for 3 days and the medium was replenished every day. On the 3rd day, the cells were incubated with TCEP solution in Williams' E medium at pre-determined concentrations and time; 5 mM for 1.5 hour, 10 and 25 mM for 30 minutes each. The duration of the incubation was chosen based on the ability of the associated TCEP concentrations to completely cleave HPCSS Gal sponge. Upon incubation, the morphology of the cells was monitored and followed with further incubation of 1 mg/mL (3-(4,5-dimethylthiazol-2-yl)-2,5-diphenyltetrazolium bromide (MTT) solution for 3 hours. The formed formazan product in each well was dissolved with 300 μL of 0.04 M HCl in isopropanol and its optical density was measured by TECAM Infinite M1000 microplate reader at 570 nm. Cell viability was determined by calculating the ratio of treated sample absorbance against untreated sample absorbance."}, "[3]": {"system": "CYP1A2, CYP2B2 and CYP3A2", "assay": "RT-PCR gene expression of cytochrome P450 genes in hepatocyte spheroids", "format": "cell-based", "details": "10 mM TCEP, 30 minutes, rat hepatocyte spheroids", "description": "Rat hepatocyte, E1 and mESCs spheroids were retrieved from the sponge by incubating cell seeded-cleavable sponge with 3 mL of 10 mM TCEP in respective cell culture mediums in each well of 12-well plate for 30 minutes at 37° C. (incubator set up 5% CO2 and 95% humidity). The cleaved sponge solution from each well was mixed thoroughly by 3 mL plastic dropper and then transferred into 15 mL falcon tube. This solution was further diluted with 3 mL pre-warmed DPBS and centrifuged at 100×g for 10 minutes. This washing step was repeated three times to remove TCEP solution completely. Eventually, the retrieved hepatocyte spheroids were resuspended in fresh mediums and replated on collagen coated dish or poly-L-lysine coated dish for further assays or spheroids manipulation.\nRNA was extracted from hepatocytes cultured as 3D spheroids in HPCSS Gal sponges by RLT lysis buffer (Qiagen, Singapore). Total RNA concentration was quantified by a Nanodrop (Thermoscientific) and 1 μg of RNA was converted to cDNA by High Capacity RNA-to-cDNA (Applied Biosystems). Primers were designed using Primer 3 and real-time PCR was performed by using SYBR green fast master mix on a ABI 7500 Fast Real-Time PCR system (Applied Biosystems). Gene expression was calculated using the ΔΔCT method normalized to GAPDH. The primers used in experiment are shown below."}, "[4]": {"assay": "Dynamic of sponge cleavage with time lapse imaging", "details": "10 mM TCEP, 37° C., confocal time lapse", "description": "The propidium iodide-prestained HPCSS Gal sponges were incubated with 10 mM TCEP and its macroporosity changes were monitored by Olympus fluoview FV1000 equipped with 37° C. heated chamber with a 60× water lens for 30 minutes with 2 minutes time interval. Images were analysed using IMARIS and images assembled using Adobe illustrator CS3."}, "[5]": {"system": "F-actin, E-cadherin and MRP2", "assay": "Immunofluorescence staining of polarity markers and cell-cell junction of retrieved hepatocyte spheroids", "format": "cell-based, rat", "details": "10 mM TCEP to cleave the sponge", "description": "To stain F-actin, E-cadherin and MRP2, hepatocytes spheroids cultured for 72 hours post-seeding in the sponges and retrieved from HPCSS Gal sponges were fixed in 3.7% paraformaldehyde for 10 minutes. For staining F-actin, the cells were permeabilized for 5 minutes in 0.1% Triton X-100 and incubated with 1 μg/mL TRITC-phalloidin (Molecular Probes, USA) for 20 minutes. For E-cadherin and MRP2 staining, following washing and blocking with 2% BSA/0.2% Triton-X 100 the spheroids were incubated overnight at 4° C. with primary antibodies: anti-rat E-cadherin (BD, USA) and rabbit anti-rat MRP2 (Sigma Aldrich, Singapore), respectively. Secondary antibodies used were goat anti-mouse and goat anti-rabbit 488 and 555 (Molecular Probes, USA), respectively. Nuclei stain was captured using DAPI stain (Vecta Shield, UK). Images were captured using Olympus fluoview FV1000 with a 60× water lens. Images were analysed using IMARIS and assembled using Adobe illustrator CS3."}, "cells": {"system": "cells", "details": "10 mg/mL, 24 hours of exposure; cited from earlier work"}, "[6]": {"details": "3 mM reductant in William's E medium"}, "[7]": {"details": "5 mM reductant in William's E medium"}, "[8]": {"details": "25 mM reductant in William's E medium"}},
  "note": "“Also recorded” adds a separate entry of the source.",
  "data": [
    {"smiles": "O[C@H](CS)[C@H](O)CS", "note": "(racemic) [DTT, dithiothreitol]", "values": [
      {"measurement": "pH range at which the reductant is effective", "setting": "[1]", "value": "7-8.1"},
      {"measurement": "Remarks: sponge cleavage", "setting": "[2]", "value": "Sponge not"},
      {"measurement": "Remarks: time within which sponge cleaved", "setting": "[2]; [6]", "value": "within 2 hours"},
      {"measurement": "Remarks: time within which sponge cleaved", "setting": "[2]; [7]", "value": "within 1.5 hour"},
      {"measurement": "Remarks: time within which sponge cleaved", "setting": "[2]; 10 mM reductant in William's E medium", "value": "within 30 minutes"},
      {"measurement": "Remarks: time within which sponge cleaved", "setting": "[2]; [8]", "value": "within 30 minutes"}
    ]},
    {"smiles": "O=C(O)CCP(CCC(=O)O)CCC(=O)O", "note": "[TCEP, tris(2-carboxyethyl)phosphine]", "values": [
      {"measurement": "pH range at which the reductant is effective", "setting": "[1]", "value": "1.5-8.5"},
      {"measurement": "primary rat hepatocyte viability", "setting": "primary rat hepatocyte; 5 mM, 1.5 hour", "value": "79.75±10.71", "unit": "%"},
      {"measurement": "primary rat hepatocyte viability", "setting": "primary rat hepatocyte; 10 mM, 30 minutes", "value": "87.42±8.03", "unit": "%"},
      {"measurement": "primary rat hepatocyte viability", "setting": "primary rat hepatocyte; 25 mM, 30 minutes", "value": "93.06±6.96", "unit": "%"},
      {"measurement": "cell damage in phase contrast images", "setting": "primary rat hepatocyte; hepatocytes with and without TCEP incubation", "value": "No significant cell damage"},
      {"measurement": "maintenance of cell viability (FIG. 10 legend)", "setting": "primary rat hepatocyte; rat hepatocyte, all TCEP configurations tested", "value": "> 80", "unit": "%"},
      {"measurement": "effect of TCEP incubation on CYP genes", "setting": "[3]", "value": "did not show any significant detrimental effect; also recorded: no significant effect"},
      {"measurement": "time at which sponge macroporous networks had shrunken significantly", "setting": "[4]", "value": 6, "unit": "min"},
      {"measurement": "effect of TCEP incubation on polarity markers and cell-cell junction", "setting": "[5]", "value": "does not show harmful effect"},
      {"measurement": "remaining viable cells", "setting": "cells", "value": 60, "unit": "%"},
      {"measurement": "Remarks: sponge cleavage", "setting": "[2]", "value": "Sponge not"},
      {"measurement": "Remarks: time within which sponge cleaved", "setting": "[2]; [6]", "value": "within 2 hours"},
      {"measurement": "Remarks: time within which sponge cleaved", "setting": "[2]; [7]", "value": "within 1.5 hour"},
      {"measurement": "Remarks: time within which sponge cleaved", "setting": "[2]; [8]", "value": "within 30 minutes"}
    ]}
  ]
}
